Target: T1, wild-type V1-ATPase (Enterococcus hirae, UniProt Q08636+Q08637)
T1 construct: gene ntpA
Conditions: MgCl2; pH 6.5, 25 °C; ATP-regenerating system

## Nc1ncnc2c1ncn2[C@@H]1O[C@H](COP(=O)(O)OP(=O)(O)OP(=O)(O)O)[C@@H](O)[C@H]1O [ATP]
  coupled ATPase assay (NADH, pyruvate kinase / lactate dehydrogenase): We also measured ATPase activity of the wild-type and designed V1

— publication PMC10624635, “Design of allosteric sites into rotary motor V1-ATPase by restoring lost function of pseudo-active sites” (Nature Chemistry, 2023)
